The values that follow come from patent US11369607B2, “Compositions, systems, and methods for generating inner ear hair cells for treatment of hearing loss” (Massachusetts Institute of Technology, priority 2014, dated 2022).

In this assay the test system is CBA/CaJ mice. Put plainly: Hearing recovery in noise-deafened mice (auditory brainstem responses). The conditions noted are these: 5, 10, 20, 28.3 and 40 kHz, p<0.05. It is filed as in vivo, mouse. As to the method: A 17% (w/w) stock solution of poloxamer 407 gel (Sigma-Aldrich) was prepared by slowly adding it to cold 1× phosphate-buffered saline at pH 7.4. This solution is liquid when refrigerated or at room temperature but solidifies at body temperature. The gel was tinted blue with Evans blue dye (50 ppm) for visualization during administration.
A formulation was prepared as described in Example 4 with 527 mM VPA and 2.975 mM CHIR in 17% Poloxamer 407 with 5% DMSO (“VPA/CHIR”). For comparison, a Notch inhibitor, LY411575, was prepared at 4 mM in 17% Poloxamer 407 with 5% DMSO (“LY411575”). Additionally, a vehicle-only control of 17% Poloxamer 407 with 5% DMSO was prepared (“Control”).
CBA/CaJ mice were deafened in a noise chamber by exposure to an 8-16 kHz octave band noise band for 2 hours at 120 dB SPL. 24 hours after noise exposure, their hearing was assessed by measuring auditory brainstem responses (ABRs). The minimum sound pressure level (SPL) required for visual detection of ABR Wave I was determined at 5, 10, 20, 28.3, and 40 kHz. Following ABR measurements, a trans-tympanic injection of a Poloxamer gel drug mixture (described above as “VPA/CHIR”, “LY411575”, or “Control”) was delivered to fill the middle ear cavity. After 30 days, ABR was assessed and the improvement in hearing threshold from 24 hrs to 30 days after noise exposure was determined.

As for `C[C@H](NC(=O)[C@@H](O)c1cc(F)cc(F)c1)C(=O)N[C@@H]1C(=O)N(C)c2ccccc2-c2ccccc21` [LY411575, N-2((2S)-2-(3,5-difluorophenyl)-2-hydroxyethanoyl)-N 1-((7S)-5-methyl-6-oxo-6,7-dihydro-5H-dibenzo[b,d]azepin-7-yI)-1-alaninamide], the hearing recovery result was “significant recovery at 10 kHz, 28.3 KHz, and 40 kHz”.
